A short description of the data set: collision cross section in nitrogen (drift tube, single-field); higher = larger gas-phase ion size.
The mark [1] stands for this setting: ion type: [M+H], ion source: APCI, ion mode: Positive.
The mark [2] stands for this setting: ion type: [M+H], ion source: ESI, ion mode: Positive.
[3] abbreviates: ion type: [M-H], ion source: ESI, ion mode: Negative.
Setting [4] is: ion type: [M+Na], ion source: ESI, ion mode: Positive.

This note sets out measurements from the supplement of paper PMC12317010.

The structures appear in SMILES notation. Counter-ions that a name gives are not always drawn.
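Further: chemical standards at 10 µM analysed by drift tube IMS-QTOF MS in about 3.95 torr nitrogen, mean of duplicate injections differing ≤1%, mass error below 10 ppm.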

For the molecule `Cc1cccc(N)n1` [6-Methylpyridin-2-amine], the “collision cross section in nitrogen” value runs as follows: under setting [1], 118.6 Å²; under setting [2], 119.5 Å².

In the case of `NNC(=O)c1ccncc1` [Isoniazid], the “collision cross section in nitrogen” value under setting [3] is listed as 125.3 Å².

Regarding `CCCCCCCCC(=O)OCC(C)OC(=O)CCCCCCCC` (configuration not stated) [Propylene glycol dipelargonate], the “collision cross section in nitrogen” value under setting [4] stood at 207.9 Å².

Take `F[B-](F)(F)F` [Sodium tetrafluoroborate]: under “ion source: ESI, ion mode: Negative, ion type: [M]- (permanent anion)”, the “collision cross section in nitrogen” value is listed as 101 Å².

As to `CCCCCCCCC(CCCCCC)C(=O)O` (configuration not stated) [2-Hexyldecanoic acid], the “collision cross section in nitrogen” value under setting [3] was 176.7 Å².

Take `O=[N+]([O-])c1ccc(O)c([N+](=O)[O-])c1` [2,4-Dinitrophenol]: under setting [3], the “collision cross section in nitrogen” value came to 127.8 Å².

`NCCNCCNCCNCCN` [Tetraethylenepentamine]: the “collision cross section in nitrogen” value under setting [4] turned out to be 148.5 Å².

With `CC[C@H]1CC[C@H](NCc2cc3c(cc2OC)[C@H]2C[C@H]2C(=O)N3C)[C@H](c2ccccc2)N1`, the “collision cross section in nitrogen” value by setting is: under setting [1], 208.4 Å²; under setting [2], 208.2 Å²; under setting [4], 214.4 Å².

Regarding `CC=CC(=O)N(CC)c1ccccc1C` [Crotamiton], the “collision cross section in nitrogen” value reads like this: under setting [1], 145.3 Å²; under setting [2], 145.7 Å²; under setting [4], 157 Å².

In the case of `CCC(C)N(C)C(=O)c1cc2ccccc2c(-c2ccccc2Cl)n1` (configuration not stated), the “collision cross section in nitrogen” value reads like this: under setting [1], 186.6 Å²; under setting [2], 185.9 Å²; under setting [4], 192.8 Å².

As for `Nc1ccn([C@@H]2O[C@H](CO)[C@@H](O)[C@@H]2O)c(=O)n1` [Cytarabine], the “collision cross section in nitrogen” value under setting [4] was determined as 156.9 Å².

With `CCCCCc1ccc(N)cc1` [4-Pentylaniline], the “collision cross section in nitrogen” value under setting [2] came to 156.5 Å².

Regarding `Cc1ccc(N)cc1S(=O)(=O)O` [5-Amino-2-methylbenzenesulfonic acid], the “collision cross section in nitrogen” value under setting [3] came to 137.7 Å².

In the case of `CCN(CC)c1ccc(C=O)c(O)c1` [4-(Diethylamino)salicylaldehyde], the “collision cross section in nitrogen” value was 142.6 Å² under setting [1], 143.7 Å² under setting [2] and 147 Å² under setting [3].

As for `CC(C)=CCCC(C)CC(=O)O` (configuration not stated) [Citronellic acid], the “collision cross section in nitrogen” value under setting [3] came out at 148.8 Å².

In the case of `CCCCCCCCn1sccc1=O` [2-n-Octyl-4-isothiazolin-3-one], the “collision cross section in nitrogen” value is 158.3 Å² under setting [1] and 158 Å² under setting [2].

In the case of `Cc1ccc2c(c1)C(=O)c1ccccc1C2=O` [2-Methylanthraquinone], the “collision cross section in nitrogen” value under setting [3] is recorded as 145.3 Å².

Regarding `CC1Cc2ccccc2N1NC(=O)c1ccc(Cl)c(S(N)(=O)=O)c1` (configuration not stated) [Indapamide], the “collision cross section in nitrogen” value runs as follows: under setting [2], 187.6 Å²; under setting [4], 195.9 Å²; under setting [3], 186.6 Å².

On to `Oc1cccc(I)c1` [3-Iodophenol], for which, under setting [3], the “collision cross section in nitrogen” value is 122.5 Å².

`Nc1c(Cl)c(F)nc(OCC(=O)O)c1Cl` [Fluroxypyr]: the “collision cross section in nitrogen” value under setting [3] is 141.3 Å².

With `Cc1cc(SCc2sc(-c3ccc(C(F)(F)F)c(F)c3)nc2C)ccc1OCC(=O)O`, the “collision cross section in nitrogen” value was determined as 194.4 Å² under setting [1], 194.2 Å² under setting [2] and 199.5 Å² under setting [3].

On to `NC(=S)c1c(Cl)cccc1Cl` [Chlorthiamid], for which the “collision cross section in nitrogen” value under setting [3] was determined as 135.9 Å².

For `c1coc(-c2nc3ccccc3[nH]2)c1` [Fuberidazole], the “collision cross section in nitrogen” value under setting [1] worked out at 136.1 Å², the “collision cross section in nitrogen” value under setting [2] is given as 136.8 Å² and the “collision cross section in nitrogen” value under setting [3] came out at 138 Å².

For the molecule `O=[N+]([O-])c1ccc2[nH]cnc2c1` [6-Nitrobenzimidazole], the “collision cross section in nitrogen” value was 136.5 Å² under setting [1], 136.5 Å² under setting [2] and 123.6 Å² under setting [3].

As for `CCOP(=S)(NC(C)C)Oc1ccccc1C(=O)OC(C)C` (configuration not stated) [Isofenphos], the “collision cross section in nitrogen” value reads like this: under setting [4], 184.2 Å²; under setting [3], 173.7 Å².

Consider `CCCCC(CC)COC(=O)CCCCCCCCC(=O)OCC(CC)CCCC` (configuration not stated) [Bis(2-ethylhexyl) decanedioate], for which, under setting [4], the “collision cross section in nitrogen” value stood at 224.2 Å².

On to `C[C@]12C[C@H](O)[C@H]3[C@@H](CCC4=CC(=O)CC[C@@]43C)[C@@H]1CC[C@@H]2C(=O)CO` [Corticosterone], for which, under setting [4], the “collision cross section in nitrogen” value worked out at 212.4 Å².

With `CCNc1cc2[o+]c3cc(NCC)c(C)cc3c(-c3ccccc3C(=O)OCC)c2cc1C` [Rhodamine 6G], the “collision cross section in nitrogen” value (ion source: APCI, ion mode: Positive, ion type: [M]+ (permanent cation)) is on record as 218.3 Å² and the “collision cross section in nitrogen” value (ion source: ESI, ion mode: Positive, ion type: [M]+ (permanent cation)) is recorded as 218.9 Å².

Turning to `CCCCCCC(C)OC(=O)COc1nc(F)c(Cl)c(N)c1Cl` (configuration not stated) [Fluroxypyr-meptyl], the “collision cross section in nitrogen” value is listed as 194.3 Å² under setting [4] and 176.2 Å² under setting [3].

Turning to `CCCCCCCCCC(=O)OCC` [Ethyl decanoate], the “collision cross section in nitrogen” value under setting [3] is 154.6 Å².

`c1ccc(C(O[C@@H]2CCCN(CCc3ccc4c(c3)OCO4)C2)c2ccccc2)cc1` [Zamifenacin]: the “collision cross section in nitrogen” value was 192.3 Å² under setting [1], 192.4 Å² under setting [2] and 195.9 Å² under setting [4].

Take `CC(=O)[C@@]1(O)CC[C@H]2[C@@H]3CCC4=CC(=O)CC[C@]4(C)[C@H]3CC[C@@]21C` [17alpha-Hydroxyprogesterone]: the “collision cross section in nitrogen” value under setting [3] came to 184.4 Å².

With `C[C@]1(Cn2ccnn2)[C@H](C(=O)O)N2C(=O)C[C@H]2S1(=O)=O` [Tazobactam sodium], the “collision cross section in nitrogen” value is reported as 161.8 Å² under setting [2] and 157.7 Å² under setting [3].

In the case of `CCN(CCO)CCO` [Ethyl diethanolamine], the “collision cross section in nitrogen” value reads like this: under setting [1], 125.6 Å²; under setting [2], 125.8 Å².

On to `CC(C)(O)c1cnn2c(-c3ccc(F)c(-c4c(F)cccc4C#N)c3)cnc2n1`, for which the “collision cross section in nitrogen” value is recorded as 197.1 Å² under setting [1], 196.4 Å² under setting [2], 209.2 Å² under setting [4] and 198.6 Å² under setting [3].

As for `CC(C)(C)CC(C)(C)c1ccc(O)c(-n2nc3ccccc3n2)c1` [Octrizole], the “collision cross section in nitrogen” value is, setting by setting: under setting [1], 186.3 Å²; under setting [3], 190 Å².

Take `CNC(=O)Oc1cccc(N=CN(C)C)c1` [Formetanate hydrochloride]: under setting [2], the “collision cross section in nitrogen” value stood at 156 Å².

Regarding `COP(=O)(OC)C(O)C(Cl)(Cl)Cl` (configuration not stated) [Trichlorfon], the “collision cross section in nitrogen” value under setting [4] worked out at 151.7 Å².

Turning to `C[As+](C)(C)CC(=O)[O-]` [Arsenobetaine], the “collision cross section in nitrogen” value under setting [2] came to 118 Å².

For the molecule `NC(=O)c1ccccc1O` [Salicylamide], under setting [3], the “collision cross section in nitrogen” value is 122.2 Å².

As for `O=S(=O)(O)c1ccc(Cl)cc1` [4-Chlorobenzenesulphonic acid], under setting [3], the “collision cross section in nitrogen” value worked out at 133.5 Å².

On to `O=C(c1ccccc1)c1ccc(O)cc1O` [2,4-Dihydroxybenzophenone], for which the “collision cross section in nitrogen” value under setting [3] is 148.3 Å².

Turning to `CCOC(=O)Cc1ccccc1` [Benzeneacetic acid, ethyl ester], under setting [3], the “collision cross section in nitrogen” value was 144.3 Å².
